Test results as given in patent US9296741B2, “Bromodomain inhibitors” (priority 2012, dated 2016).

Tests used:
[1] = Mouse liver microsome stability assay; format: in vitro ADME; details: male, CD1, mouse, microsomes, pH 7.4
[2] = Human liver microsome stability assay; format: in vitro ADME; details: both sexes, human, microsomes, pH 7.4
[3] = Rat liver microsome stability assay; format: in vitro ADME; details: rat liver microsomes (male Sprague-Dawley), 0.5 μM test compound, pH 7.4, 37° C.; for half-life at 0.5 μM: 0.25 mg/mL microsomal protein, read-out: Stability in rat liver microsomes (t1/2 in minutes)
[4] = tested on: breast cancer cell line MX-1; experiment: MX-1 cell line proliferation assay; format: cell-based, human; details: Homo sapiens, MX1, 72 h; MX-1 cells, 3-day proliferation, Cell Titer Glo; read-out: Cellular proliferation: EC50
[5] = molecular target: human BRD4 first bromodomain (BDI_K57-E168) (Homo sapiens (Human), UniProt O60885); experiment: TR-FRET bromodomain binding assay, BRD4 first bromodomain
[6] = molecular target: human BRD4 second bromodomain (BDII_E352-M457) (Homo sapiens (Human), UniProt O60885); experiment: TR-FRET bromodomain binding assay, BRD4 second bromodomain

Row | Compound | half-life at 0.5 μM [1] [min] | half-life at 0.5 μM [2] [min] | half-life at 0.5 μM [3] [min] | EC50 [4] [nM] | Stability in rat liver microsomes (t1/2 in minutes) ([3]; […] microsomal protein) [min] | Ki [5] [nM] | Ki [6] [nM]
1 | Cn1cc(-c2cc(C(=O)Nc3nccs3)ccc2Oc2ccccc2)c2cc[nH]c2c1=O [Example 17, 3-(6-methyl-7-oxo-6,7-dihydro-1H-pyrrolo[2,3-c]pyridin-4-yl)-4-phenoxy-N-(1,3-thiazol-2-yl)benzamide] | 16 | 31 | 18 | 283 |  |  | 
2 | CCOC(=O)c1ccc(NC2CCCC2)c(-c2cn(C)c(=O)c3[nH]ccc23)c1 [Example 40, ethyl 4-(cyclopentylamino)-3-(6-methyl-7-oxo-6,7-dihydro-1H-pyrrolo[2,3-c]pyridin-4-yl)benzoate] | 6 | 13.1 |  | 167 | 1 |  | 
3 | CCNC(=O)Cc1ccc(OCc2ccccc2)c(-c2cn(C)c(=O)c3[nH]ccc23)c1 [Example 46, 2-[4-(benzyloxy)-3-(6-methyl-7-oxo-6,7-dihydro-1H-pyrrolo[2,3-c]pyridin-4-yl)phenyl]-N-ethylacetamide] | 13 | 10 | 4 | 588 |  |  | 
4 | Cn1cc(-c2cc(C(=O)N3CCCC3)ccc2Oc2ccc(F)cc2F)c2cc[nH]c2c1=O [Example 55, 4-[2-(2,4-difluorophenoxy)-5-(pyrrolidin-1-ylcarbonyl)phenyl]-6-methyl-1,6-dihydro-7H-pyrrolo[2,3-c]pyridin-7-one] | 13 | 25 | 9 | 200 |  |  | 
5 | Cn1cc(-c2cc(NS(=O)(=O)CCF)ccc2Oc2ccc(F)cc2F)c2cc[nH]c2c1=O [Example 64, N-[4-(2,4-difluorophenoxy)-3-(6-methyl-7-oxo-6,7-dihydro-1H-pyrrolo[2,3-c]pyridin-4-yl)phenyl]-2-fluoroethanesulfonamide] | 4 |  | 3 | 773 |  | 53.1 | 63.3
6 | CCOC(=O)c1cc2c(-c3cc(N)ccc3Oc3ccccc3)nn(C)c(=O)c2[nH]1 [Example 74, ethyl 4-(5-amino-2-phenoxyphenyl)-6-methyl-7-oxo-6,7-dihydro-1H-pyrrolo[2,3-d]pyridazine-2-carboxylate] | 5 | 17 | 3 | 275 |  |  | 
7 | CCNc1ccc(Oc2ccccc2)c(-c2nn(C)c(=O)c3[nH]c(C(=O)OCC)cc23)c1 [Example 75, ethyl 4-[5-(ethylamino)-2-phenoxyphenyl]-6-methyl-7-oxo-6,7-dihydro-1H-pyrrolo[2,3-d]pyridazine-2-carboxylate] | 4 | 9 | 3 | 478 |  |  | 
8 | CCCS(=O)(=O)Nc1ccc(OC2CCOC2)c(-c2cn(C)c(=O)c3[nH]ccc23)c1 (stereo not drawn) [Example 92, N-[3-(6-methyl-7-oxo-6,7-dihydro-1H-pyrrolo[2,3-c]pyridin-4-yl)-4-(tetrahydrofuran-3-yloxy)phenyl]propane-1-sulfonamide] | 11 | 97 | 20 | 84 |  |  | 
9 | CNS(=O)(=O)c1cnc(NC2CCCCC2)c(-c2cn(C)c(=O)c3[nH]ccc23)c1 [Example 97, 6-(cyclohexylamino)-N-methyl-5-(6-methyl-7-oxo-6,7-dihydro-1H-pyrrolo[2,3-c]pyridin-4-yl)pyridine-3-sulfonamide] | 28 | 26 | 9 | 14 |  |  | 
10 | Cn1cc(-c2cc(NS(=O)(=O)CC(F)(F)F)ccc2OC2CCOCC2)c2cc[nH]c2c1=O [Example 100, 2,2,2-trifluoro-N-[3-(6-methyl-7-oxo-6,7-dihydro-1H-pyrrolo[2,3-c]pyridin-4-yl)-4-(tetrahydro-2H-pyran-4-yloxy)phenyl]ethanesulfonamide] | 60 | 77 | 71 | 107 |  |  | 
11 | CCCS(=O)(=O)Nc1ccc(OC2CCC(F)(F)CC2)c(-c2cn(C)c(=O)c3[nH]ccc23)c1 [Example 102, N-{4-[(4,4-difluorocyclohexyl)oxy]-3-(6-methyl-7-oxo-6,7-dihydro-1H-pyrrolo[2,3-c]pyridin-4-yl)phenyl}propane-1-sulfonamide] | 8 | 36 | 3 | 61.5 |  |  | 
12 | Cn1cc(-c2cc(NS(=O)(=O)CC(F)(F)F)ccc2OC2CCC(F)(F)CC2)c2cc[nH]c2c1=O [Example 103, N-{4-[(4,4-difluorocyclohexyl)oxy]-3-(6-methyl-7-oxo-6,7-dihydro-1H-pyrrolo[2,3-c]pyridin-4-yl)phenyl}-2,2,2-trifluoroethanesulfonamide] | 37 | 47 | 16 | 33.8 |  |  | 
13 | CCCS(=O)(=O)Nc1ccc(OC2CCCOC2)c(-c2cn(C)c(=O)c3[nH]ccc23)c1 (stereo not drawn) [Example 106, N-[3-(6-methyl-7-oxo-6,7-dihydro-1H-pyrrolo[2,3-c]pyridin-4-yl)-4-(tetrahydro-2H-pyran-3-yloxy)phenyl]propane-1-sulfonamide] | 4 | 39 | 8 | 46.8 |  |  | 
14 | Cn1cc(-c2cc(NS(=O)(=O)CC(F)(F)F)ccc2OC2CCCOC2)c2cc[nH]c2c1=O (stereo not drawn) [Example 107, 2,2,2-trifluoro-N-[3-(6-methyl-7-oxo-6,7-dihydro-1H-pyrrolo[2,3-c]pyridin-4-yl)-4-(tetrahydro-2H-pyran-3-yloxy)phenyl]ethanesulfonamide] | 8 | 71 | 16 | 31 |  |  | 
15 | CNS(=O)(=O)c1cnc(Nc2ccccc2)c(-c2cn(C)c(=O)c3[nH]ccc23)c1 [Example 112, N-methyl-5-(6-methyl-7-oxo-6,7-dihydro-1H-pyrrolo[2,3-c]pyridin-4-yl)-6-(phenylamino)pyridine-3-sulfonamide] | 51 | 49 | 28 | 240 |  |  | 
16 | Cn1cc(-c2cc(S(C)(=O)=O)ccc2Oc2cccc3cnccc23)c2cc[nH]c2c1=O [Example 161, 4-[2-(isoquinolin-5-yloxy)-5-(methylsulfonyl)phenyl]-6-methyl-1,6-dihydro-7H-pyrrolo[2,3-c]pyridin-7-one] | 4 | 5 | 10 | 104 |  |  | 
17 | CN(C)c1cccc(Oc2ccc(S(C)(=O)=O)cc2-c2cn(C)c(=O)c3[nH]ccc23)c1 [Example 180, 4-{2-[3-(dimethylamino)phenoxy]-5-(methylsulfonyl)phenyl}-6-methyl-1,6-dihydro-7H-pyrrolo[2,3-c]pyridin-7-one] | 5 | 12 | 7 | 115 |  |  | 
18 | CC1CC1COc1ccc(S(C)(=O)=O)cc1-c1cn(C)c(=O)c2[nH]ccc12 (stereo not drawn) [Example 223, 6-methyl-4-{2-[(2-methylcyclopropyl)methoxy]-5-(methylsulfonyl)phenyl}-1,6-dihydro-7H-pyrrolo[2,3-c]pyridin-7-one] | 48 | 54 | 24 | 13.3 |  |  | 
19 | Cn1cc(-c2cc(S(C)(=O)=O)ccc2Oc2ccc(S(C)(=O)=O)cc2)c2cc[nH]c2c1=O [Example 270, 6-methyl-4-{5-(methylsulfonyl)-2-[4-(methylsulfonyl)phenoxy]phenyl}-1,6-dihydro-7H-pyrrolo[2,3-c]pyridin-7-one] | > 120 | > 120 | > 120 | 421 |  |  | 
20 | CCS(=O)(=O)Nc1ccc(Oc2ccc(F)cc2F)c(-c2cn(C)c(=O)c3[nH]ncc23)c1 [Example 320, N-[4-(2,4-difluorophenoxy)-3-(6-methyl-7-oxo-6,7-dihydro-1H-pyrazolo[3,4-c]pyridin-4-yl)phenyl]ethanesulfonamide] | 116 | > 120 | 57 | 18.7 |  |  | 
21 | CCS(=O)(=O)c1ccc(OCC2CC2)c(-c2cn(C)c(=O)c3[nH]ncc23)c1 [Example 323, 4-[2-(cyclopropylmethoxy)-5-(ethylsulfonyl)phenyl]-6-methyl-1,6-dihydro-7H-pyrazolo[3,4-c]pyridin-7-one] | > 120 | > 120 | > 120 | 37.7 |  |  | 
22 | CCS(=O)(=O)c1ccc(N2CCN(C)CC2)c(-c2cn(C)c(=O)c3[nH]ccc23)c1 [Example 331, 4-[5-(ethylsulfonyl)-2-(4-methylpiperazin-1-yl)phenyl]-6-methyl-1,6-dihydro-7H-pyrrolo[2,3-c]pyridin-7-one] | > 120 | > 120 | > 120 | 481 |  |  | 
23 | Cn1cc(-c2cc(CS(C)(=O)=O)ccc2Nc2ccc(F)cc2)c2cc[nH]c2c1=O [Example 335, 4-{2-[(4-fluorophenyl)amino]-5-[(methylsulfonyl)methyl]phenyl}-6-methyl-1,6-dihydro-7H-pyrrolo[2,3-c]pyridin-7-one] | 54 | 35 | 34 | 22.4 |  |  | 
